Consider four compounds from patent EP0372889A1, “Doxorubicin solutions” (Bristol-Myers Squibb Company, priority 1988, dated 1990).

SMILES strings stand for the structures. Counter-ions that a name gives are not always drawn. Like-named read-outs stand apart in the source and are kept apart here.

Data set [1] in a line: Solubility of doxorubicin HCl in non-aqueous solvents. The format is physicochemical. Particulars: for solubility: organic solvent or mixture. As to the method: Doxorubicin HCl at room temperature has a solubility of less than 5 mg/ml in propylene glycol, 1,2-dihydroxybutane and 1,3-dihydroxypropane. […] Solubility of doxorubicin HCl can be increased to about 20 mg/ml in the above-mentioned solvents by addition of 5-10% (v/v) water.

The format of data set [2] is physicochemical. The text has this:
It is also necessary for optimum stability of the solutions, especially at elevated temperatures which may be encountered at some time during the life of the product, e.g. during shipping, to utilize an antioxidant. We have tested a number of antioxidants including α-tocopherol, tert-butylhydroquinone (TBHQ), sodium formaldehyde bisulfite, butylated hydroxy anisole (BHA), butylated hydroxy toluene (BHT), sodium bisulfite and propyl gallate. […] This finding was disclosed and claimed in our EP-A-88111434.2 and in co-pending U.S. application Serial Number 246,602 filed September 20, 1988 and incorporated by reference herein in their entirety. […] Generally, an amount of sodium acetone bisulfite is employed in the range of about 0.1 to 20 mg/ml with about 2 mg/ml being most preferred.
Despite reports of potency losses of doxorubicin HCl solutions via photolytic degradation and adsorption to container walls, we have not noted any significant loss of potency due to container adsorption or sensitivity to normal room light with our solutions. Glass vials may conveniently be used as the container.
As an example of a stable non-aqueous solution of doxorubicin, 20 mg/ml of doxorubicin hydrochloride, 0.2 mg/ml citric acid (anhydrous), 2.0 mg/ml of sodium acetone bisulfite and a solvent medium consisting of deaerated propylene glycol/water (90:10 v/v) are added to a Type 1 flint vial, the vial is purged with nitrogen and then sealed with a suitable teflon-coated stopper. […] Substantially equivalent results are obtained when 1,2-dihydroxybutane and 1,3-dihydroxypropane solvent systems are used.

For data set [3] the following is noted: cited from earlier work.

Take `COc1cccc2c1C(=O)c1c(O)c3c(c(O)c1C2=O)C[C@@](O)(C(=O)CO)C[C@@H]3O[C@H]1C[C@H](N)[C@H](O)[C@H](C)O1` [Doxorubicin HCl, doxorubicin hydrochloride]: the “chemical stability of solutions” value in data set [1] (glycerol formal, 2-pyrrolidinone and 1-methyl-2-pyrrolidinone) was “chemically unstable”. Besides, the solubility in data set [1] (glycerol formal, pyrrolidinones, glycerol formal, 2-pyrrolidinone and 1-methyl-2-pyrrolidinone, read-out: solution concentration produced) was not below 5000 µg/mL; in data set [1] (glycols with 5-10% water, propylene glycol, 1,2-dihydroxybutane, 1,3-dihydroxypropane with addition of 5-10% (v/v) water, read-out: Solubility), approximately 20000 µg/mL; in data set [1] (propylene glycol, butanediol, propanediol, room temperature, in propylene glycol, 1,2-dihydroxybutane and 1,3-dihydroxypropane, read-out: solubility), less than 5000 µg/mL; in data set [1] (propylene glycol, butanediol, propanediol, same solvents, short-term (0.5-1 hour) warming (60-80°C) with vigorous stirring, read-out: solubility), approximately 10000 µg/mL; in data set [1] (various organic solvents, with heating, polyethylene glycols, ethanol, benzyl alcohol, dimethylisosorbide, ethyl lactate, Solketol, Cremophors, Pluronics, read-out: Solubilities) it was less than 5000 µg/mL. Further, the “physical stability of solution on cold storage” value in data set [1] (stored at 4°C to -20°C, seeding with crystalline doxorubicin HCl does not affect crystallization) was “remains in solution”. Moreover, the potency loss result in data set [1] (upon short-term (0.5-1 hour) warming (60-80°C) in propylene glycol, 1,2-dihydroxybutane, 1,3-dihydroxypropane) is recorded as “no potency loss”. Moreover, the potency retained in data set [2] (20 mg/ml, 0.2 mg/ml citric acid, 2.0 mg/ml sodium acetone bisulfite, propylene glycol/water (90:10 v/v), nitrogen purged, 2 weeks at 40°C, 20160 min) was 97.2%; in data set [2] (same solution, 4 weeks at 40°C, 40320 min), 93.4%; in data set [2] (same solution, 12 weeks at 40°C, 120960 min), 88.2%. Moreover, the “acceptable shelf-life (≦10% potency loss)” value in data set [2] (same solution, 37°C) is recorded as “at least four”; in data set [2] (same solution, room temperature), “at least 18 months”. The stable in data set [3] (commercial preservative-free ready-to-use aqueous solution, 4°C, manufacturer) is 18 months. In addition, the “undesirable and potentially toxic degradation products” value in data set [3] (commercial ready-to-use aqueous solution, at the end of 18 months at 4°C, 788400 min) was “up to 10%”. Also, the remains stable entry in data set [3] (reconstituted solution in 0.9% NaCl solution, room temperature or 5°C, Ketcyhum, et al.) is listed as “seven”.
`O=S(=O)(O)CO` [sodium formaldehyde bisulfite]: the “stabilization of doxorubicin solutions by antioxidant” value (from here on “stabilization”) in data set [2] is recorded as “resulted in the desired stability”.
As to `CC(C)(C)c1cc(O)ccc1O` [tert-butylhydroquinone], the “stabilization” value in data set [2] (elevated temperatures as well as room temperature (25°C) or below) is “resulted in the desired stability”.
Turning to `Cc1c(C)c2c(c(C)c1O)CCC(C)(CCCC(C)CCCC(C)CCCC(C)C)O2` (stereo not drawn) [α-tocopherol], the “stabilization” value in data set [2] is recorded as “resulted in the desired stability”.
